In ChEMBL document CHEMBL4052696, “Varic acid analogues from fungus as PTP1B inhibitors: Biological evaluation and structure-activity relationships” (Bioorg Med Chem Lett, 2017):
Calls of active or inactive are those of the source.

Experiments:
Rattus norvegicus [1] = assay: Increase in insulin-induced glucose lowering effect in type 2 diabetic Wistar rat at 10 mg/kg, ip dosed 30 mins before insulin injection and measured 30 mins post insulin injection by glucose-oxidase assay; type: functional, organism-based
Rattus norvegicus [2] = assay: Increase in insulin-induced glucose lowering effect in normal Wistar rat at 10 mg/kg, ip dosed 30 mins before insulin injection and measured 30 mins post insulin injection by glucose-oxidase assay; type: functional, organism-based
[3] = target: T1, Tyrosine-protein phosphatase non-receptor type 1 (Homo sapiens) (UniProt P18031); assay: Reversible inhibition of PTP1B (unknown origin) at 0.1 to 0.4 uM using p-nitrophenyl phosphate substrate incubated for 30 mins by Lineweaver-Burk double reciprocal plot
T1 sequence (whole entry): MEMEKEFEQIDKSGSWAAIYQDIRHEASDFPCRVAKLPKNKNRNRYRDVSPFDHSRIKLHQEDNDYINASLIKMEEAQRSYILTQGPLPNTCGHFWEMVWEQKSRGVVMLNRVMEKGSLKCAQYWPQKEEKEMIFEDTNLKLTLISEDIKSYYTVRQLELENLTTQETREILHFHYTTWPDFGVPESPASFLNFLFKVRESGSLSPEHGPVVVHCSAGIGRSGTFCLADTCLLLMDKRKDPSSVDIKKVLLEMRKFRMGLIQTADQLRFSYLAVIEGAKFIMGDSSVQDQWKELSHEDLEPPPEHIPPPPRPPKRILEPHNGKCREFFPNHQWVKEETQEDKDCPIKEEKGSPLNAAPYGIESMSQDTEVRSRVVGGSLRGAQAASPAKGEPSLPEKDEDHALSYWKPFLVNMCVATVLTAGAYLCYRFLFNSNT

CCCc1cc(OC(=O)c2c(O)cc(OC(=O)c3c(O)cc(O)cc3CCC)cc2CCC)cc(O)c1C(=O)O
active: Activity (Rattus norvegicus [1]) | Activity (Rattus norvegicus [2]) | inhibition [3]
